“Also recorded” adds a separate entry of the source.
Experiments:
[1] = test system: antibodies present in IFA sero-positive sera from patients infected with Bartonella henselae (IgG); assay: IgG ELISA with synthetic polypeptides of 17-kDa protein as coating antigen; format: binding, human; details: for antibody binding activity in ELISA: IFA sero-positive sera, mostly relative to peptide 3C
Description: A panel of 47 human sera, including 27 IFA positive and 20 WA negative sera, was used. ROC analysis was used to analysis the binding activity via OD450nm (FIGS. 19 and 21). AUCs for peptide 3C, 3B, 3D, and 3E were 0.9, 0.5, 0.5, and 0.8 respectively (FIGS. 19 and 21). […] Thus, the antibody recognition site seems to be present on peptide 3C (but not peptides 3B and 3D).
We adopted an IgG ELISA assay and evaluated the binding activity of the modified peptides towards IgG. The ELISA procedure involves: (i) coating 96-well micro-titer plates with modified peptides at varying concentrations (e.g., 0.2-5 μg/ml) at 4° C. overnight; (ii) adding 5% skim milk to block non-specific binding; (iii) adding patients' sera to allow formation of antibody-antigen complex; (iv) detecting the antibody-antigen complex. IFA sero-positive sera served as positive controls and IFA sero-negative sera served as negative controls. Detection of antibody-antigen complex was performed with the use of horseradish peroxidase.
A panel of 47 human sera was used in an ELISA assay to evaluate the sensitivity and specificity for synthetic polypeptides of 17-kDa protein. This panel contains 27 IFA positive sera and 20 IFA negative sera. Synthetic polypeptides used include amino acid substitution (Peptide 3C-CS3), addition (Peptide 3C-Ext2), and deletion (Peptide 3C-Del). Antibody binding was reflected by OD450nm, which was analyzed by Interactive dot diagram in statistic software MedCalc.

[2] = test system: antibodies against Bartonella henselae in IFA sero-positive patient sera (IgG); assay: IgG ELISA with recombinant 17-kDa protein or Fragment 3 as coating antigen; format: binding, human
Protocol: In the ELISA assay, purified Fragment 3 protein was diluted in coating buffer to a final concentration of 250 ng/ml. Antigen was adhered to 96-well plate by applying 100 μl this solution per well and incubated at 4° C. for 18 hours. Uncoated antigen was removed by washing the plate three times with PBST wash buffer. After washing, post-coating was done with 300 μl blocking reagent General Blocker BB1 in each well for 1 hour at 22° C. Primary polyclonal antibody from 100 μl serum in 1:100 sample dilution buffer each well was allowed to react with coated antigen for 1 hour at 22° C. After five wash steps with PBST wash buffer, each well was incubated with […] peroxidase conjugated goat anti-human IgG (KPL, 1:20,000 from 1 mg/ml stock in sample dilute buffer) for 30 minutes at 22° C. The excess amount of secondary antibody was also removed by five wash steps with PBST wash buffer. The reaction were visualized by adding 100 μl substrate 3,3′5,5′-Tetramethylbenzidine solution and incubated at 22° C. for 15 minutes. The reaction was terminated by adding 100 μl 0.5 M H2SO4 per well before taking OD450nm measurement. Receiver operating characteristic curve (ROC) analysis was calculated with associated 95% confidence interval using a binomial distribution with the MedCalc program.
In this series of studies, a panel containing 12 IFA positive serum samples and 6 IFA negative serum samples was evaluated by ELISA using the respective antigen as the coating antigen. FIG. 15 presents the results of this ELISA analysis. […] Neither antigen bound antibody in sample #3508.
To further characterize the comparative abilities of recombinant Fragment 3 and the full length protein to bind antibodies to Bartonella henselae, a broader panel of 47 serum samples (27 IFA positive serum samples and 20 IFA negative serum samples) was analyzed by ELISA. The raw data was analyzed with ROC curve comparison in statistic software MedCalc.
A panel of 47 human sera was used in an IgG ELISA to evaluate the sensitivity and specificity for Fragment 3 mutants. The raw data was analyzed by interactive dot diagram assay (FIGS. 31 and 32).
Purified protein was diluted in coating buffer to a final concentration 250 ng/ml. Antigen was adhered to 96-well plate by applying 100 μl above prepared solution per well and incubate at 4° C. for 18 hours. We removed uncoated antigen by washing plate three times with PBST wash buffer. After washing, post-coating was done with 300 μl blocking reagent General Blocker BB1 each well for 1 hour at 22° C. Then primary polyclonal antibody from 100 μl serum in 1:100 sample dilution buffer each well was allowed to react with coated antigen for 1 hour at 22° C. After five times washing with PBST wash buffer, we incubated each well with 100 μl peroxidase conjugated goat anti-human IgG (KPL, 1:20,000 from 1 mg/ml stock in sample dilute buffer) for 30 minutes at 22° C. The excess amount of secondary antibody was also removed by five times washing with PBST wash buffer. The reaction were visualized by adding 100 μl substrate 3,3′5,5′-Tetramethylbenzidine Solution and incubated at 22° C. for 15 minutes. In the end, we terminated reaction with 100 μl 0.5 M H2SO4 per well before taking OD450nm measurement. Receiver operating characteristic curve (ROC) analysis was calculated with associated 95% confidence interval using a binomial distribution with MedCalc program.

[3] = ELISA, panel of 47 human sera (27 IFA positive, 20 IFA negative), ROC analysis of OD450nm
[4] = panel study, 47 human sera (27 IFA positive, 20 IFA negative), interactive dot diagram

| Molecule | antibody binding activity in ELISA [1] | sensitivity [1, 4] [%] | specificity [1, 4] [%] | other results |
| --- | --- | --- | --- | --- |
| LKQDEQKLEKLEKSDVRL (listed as Bartonella henselae) [Peptide 3C-RD1, peptide 3C with substitution of the first 8 AA at N-terminus] | same binding activity as compared to that of peptide 3C |  |  |  |
| EEQTQKKHEDLQKQLK (listed as Bartonella henselae) [Peptide 3D, synthetic polypeptide, aa 123-138 of 17-kDa protein] |  |  |  | AUC [1, 3]: 0.5; sensitivity [1, 3]: 85.2%; specificity [1, 3]: 25.0% |
| EQTQKKHEDLQKQLKEKLEKSDVRL (listed as Bartonella henselae) [Peptide 3C-Ext2, peptide 3C with addition of 7 AA at N-terminus] | same binding activity as compared to that of peptide 3C; also recorded: identical binding activity as compared to that of peptide 3C | ~80 | ~90 |  |
| QKKHEDLQKQLKEKLEKSDVRL (listed as Bartonella henselae) [Peptide 3C-Ext1, peptide 3C with addition of 4 AA at N-terminus] | same binding activity as compared to that of peptide 3C |  |  |  |
| LKLELELVQDSDKQEKRK (listed as Bartonella henselae) [Peptide 3C-RD, peptide 3C with substitution of the entire 18 AA] | no binding activity; also recorded: fail to bind antibody | ~11 | 0 |  |
| ED_QKQLKEKLEKSDVRL (EDQKQLKEKLEKSDVRL; listed as Bartonella henselae) [Peptide 3C-Del, peptide 3C with leucine at third position from N-terminus deleted] | did not alter the binding activity; also recorded: identical binding activity as compared to that of peptide 3C | ~80 | ~90 |  |
| EDLQKQLKEKLEKSDVRL (listed as Bartonella henselae) [Peptide 3C, synthetic polypeptide, aa 131-148 of 17-kDa protein] | possesses the antibody binding activity; also recorded: dose-dependent increase in binding towards sero-positive serum |  |  | AUC [1, 3]: 0.9; sensitivity [1, 3]: 77.8%; specificity [1, 3]: 88.2%; antibody binding activity in ELISA ([1]; listed as SEQ ID NO: 22): possesses the ability to bind to antibodies present in IFA positive sera |
| EDLQKQLKSDKEVKLRLE (listed as Bartonella henselae) [Peptide 3C-RD2, peptide 3C with substitution of the last 10 AA at C-terminus] | completed abrogated the binding activity; also recorded: fail to bind antibody | ~11 | 0 |  |
| QAKDTKTKEELREEQTQK (listed as Bartonella henselae) [Peptide 3B, synthetic polypeptide, aa 111-128 of 17-kDa protein] |  |  |  | AUC [1, 3]: 0.5; sensitivity [1, 3]: 33.3%; specificity [1, 3]: 90.0% |
| EDIQKQLKEKLEKSDVRL (listed as Bartonella henselae) [Peptide 3C-CS2, peptide 3C with conservative substitution L to I] | same binding activity |  |  |  |
| EKLEKSDVRL (listed as Bartonella henselae) [Peptide 3E, synthetic polypeptide, aa 139-148 of 17-kDa protein] | not sufficient to complete antibody binding |  |  | AUC [1, 3]: 0.8; sensitivity [1, 3]: 40.7%; specificity [1, 3]: 88.2%; antibody binding activity in ELISA ([1]; listed as SEQ ID NO: 33): by itself insufficient to render the ability to bind antibodies present in IFA positive sera |
| EDLQKQVKEKLEKSDVRL (listed as Bartonella henselae) [Peptide 3C-CS3, peptide 3C with conservative substitution L to V] | same binding activity; also recorded: identical binding activity as compared to that of peptide 3C | ~80 | ~90 |  |
| DDLQKQLKEKLEKSDVRL (listed as Bartonella henselae) [Peptide 3C-CS1, peptide 3C with conservative substitution E to D] | identical binding activity as compared to that of peptide 3C |  |  |  |
| 17-kDa Fragment 3: His-tagged recombinant fragment of 17-kDa protein, aa 77-148, glutamine instead of arginine at position 147 (protein, listed as Bartonella henselae, His tag) KTKPEQLQALQIELTLLQAQLQADTLKIQSLAMIQAKDTKTKEELREEQTQKKHEDLQKQLKEKLEKSDVQL |  |  |  | area under ROC curve (AUC) ([2]; IgG ELISA, panel of 47 serum samples (27 IFA positive, 20 IFA negative), MedCalc ROC): 0.897; ability to bind antibodies in IgG ELISA ([2]; coating antigen, IFA positive vs IFA negative sera): binds to antibodies against Bartonella henselae; also recorded: identical, if not better, ability to bind antibodies when compared with the full-length 17-kDa protein; also recorded: better sensitivity in detecting positive serum than the full length antigen; reaction with IFA negative serum samples ([2]; panel of 12 IFA positive and 6 IFA negative serum samples): Neither antigen reacted with any of the IFA negative serum samples |
